According to patent US7462598B2, “Antimicrobial theta defensins, analogs thereof, and methods of use” (priority 2002, dated 2008):
Bridge positions count the residues as written; N and C are the ends. Peptide text beside a SMILES is read from it.

Tests used:
E. coli ML35 [1] = assay: Agar diffusion assay; type: cell-based, Escherichia coli; conditions: diameter of clearing, FIG. 3
Description: Briefly, 10-μl wells were bored in a 9-cm^2 plate of agarose, buffered with 10 mM 1,4-piperazinebis(ethanesulfonic acid) (PIPES), pH 7.4, containing 5 mM glucose, and seeded with 1×10^6 mid-log phase cells. Five-μl aliquots of peptides, dissolved in 0.01% HOAc at 10-300 μg/ml, were added to each well. After incubation at 37° C. for 2 h, the seeded agar was overlaid with molten agarose containing 6% trypticase soy broth (for bacteria) or Sabouraud dextrose broth (for fungi). Plates were incubated at 37° C. for 18-24 h, and antimicrobial activity was determined by measuring the diameter of clearing around each well.

C. albicans 16820 = assay: Cell-suspension microbicidal assay (MMC); type: cell-based, Candida albicans; conditions: lowest concentration that reduced cell viability by 99.9%; 10 mM PIPES, 5 mM glucose, pH 7.4; 2 h 37° C.
Summary of the method: (§1)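 Log-phase microbes (2×10^6 CFU/ml) exposed to two-fold peptide dilutions (0.062-8.0 μg/ml) in 10 mM PIPES, 5 mM glucose, pH 7.4, 2 h at 37 °C, then diluted 1:10 to 1:10^6 in broth and grown 24-48 h. MMC is the lowest concentration giving ≥99.9% killing (no pellet at 1:10^3).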

S. aureus 502a = assay: Cell-suspension microbicidal assay (MMC); type: cell-based, Staphylococcus aureus; conditions: lowest concentration that reduced cell viability by 99.9%; 10 mM PIPES, 5 mM glucose, pH 7.4; 2 h 37° C.
Summary of the method: as §1

E. coli ML35 [2] = assay: Cell-suspension microbicidal assay (MMC); type: cell-based, Escherichia coli; conditions: lowest concentration that reduced cell viability by 99.9%; 10 mM PIPES, 5 mM glucose, pH 7.4; 2 h 37° C.
Summary of the method: as §1

[3] = target: T1, recombinant β-galactosidase (Escherichia coli, UniProt P00722); assay: Inhibition of purified β-galactosidase (ONPG hydrolysis); type: biochemical; conditions: 4 μg/ml, the highest peptide concentration tested; 10 nM enzyme
T1 construct: gift from Dr. Donald P. Satchell, University of California, Irvine, Department of Pathology
T1 sequence (P00722 2-1024): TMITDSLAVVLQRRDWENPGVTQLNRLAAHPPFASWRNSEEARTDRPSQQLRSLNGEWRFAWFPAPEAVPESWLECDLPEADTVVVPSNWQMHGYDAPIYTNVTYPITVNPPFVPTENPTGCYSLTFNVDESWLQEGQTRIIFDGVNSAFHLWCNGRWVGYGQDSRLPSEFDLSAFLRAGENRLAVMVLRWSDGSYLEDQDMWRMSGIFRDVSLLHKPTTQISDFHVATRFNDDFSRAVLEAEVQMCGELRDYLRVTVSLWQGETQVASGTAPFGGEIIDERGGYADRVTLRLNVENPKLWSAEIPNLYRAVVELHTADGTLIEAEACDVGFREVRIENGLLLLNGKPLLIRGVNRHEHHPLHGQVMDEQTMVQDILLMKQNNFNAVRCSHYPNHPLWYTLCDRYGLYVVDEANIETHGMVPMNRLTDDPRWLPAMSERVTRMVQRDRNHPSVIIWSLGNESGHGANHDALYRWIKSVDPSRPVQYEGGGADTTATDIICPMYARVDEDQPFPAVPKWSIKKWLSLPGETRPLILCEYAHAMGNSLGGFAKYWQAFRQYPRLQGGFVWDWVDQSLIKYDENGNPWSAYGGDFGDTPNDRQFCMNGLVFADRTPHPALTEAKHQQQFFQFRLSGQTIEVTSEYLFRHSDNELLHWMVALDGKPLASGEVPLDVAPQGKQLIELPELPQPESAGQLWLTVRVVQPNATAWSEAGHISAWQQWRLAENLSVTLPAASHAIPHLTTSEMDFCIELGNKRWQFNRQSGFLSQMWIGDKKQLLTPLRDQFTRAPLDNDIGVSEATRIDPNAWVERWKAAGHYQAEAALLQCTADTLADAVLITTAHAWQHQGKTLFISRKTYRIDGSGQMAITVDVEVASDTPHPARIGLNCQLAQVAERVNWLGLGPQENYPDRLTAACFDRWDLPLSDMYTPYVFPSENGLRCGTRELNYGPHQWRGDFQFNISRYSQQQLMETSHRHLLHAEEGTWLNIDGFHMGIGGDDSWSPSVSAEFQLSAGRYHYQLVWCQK
Description: Dose-dependent rates of ONPG hydrolysis were determined using 10 nM of purified β-galactosidase.
The effect of each peptide on β-galactosidase-dependent ONPG hydrolysis was determined by incubating 0-4 μg/ml of each peptide with recombinant β-galactosidase (a gift from Dr. Donald P. Satchell, University of California, Irvine, Department of Pathology) and 3 mM ONPG as described above.

E. coli ML35 [4] = assay: Membrane permeabilization assay (ONPG hydrolysis); type: cell-based, Escherichia coli; conditions: rates at 1 μg/ml concentration of each peptide
Summary of the method: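 ONPG hydrolysis by log-phase E. coli ML35 (1×10^6 CFU/ml) in 10 mM PIPES pH 7.4 with 3 mM ONPG, peptides at 0-8.0 μg/ml final; A405 followed for 60 min. Control: 0-4 μg/ml peptide incubated with recombinant β-galactosidase and 3 mM ONPG.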

E. coli ML35 [5] = assay: Microbicidal assay by colony counting (Example I); type: cell-based, Escherichia coli
Description: The limit of detection (1 colony per plate) was equal to 1×10^3 CFU/ml in the incubation mixture.
Microbicidal activity of each peptide was determined by incubating 2×10^6 CFU/ml with peptides (0.5-12 μg/ml) in 50 μl of 10 mM PIPES buffer containing 5 mM glucose, pH 7.4. […] After 37° C. incubation for 18-48 h, colonies were counted and cell survival was expressed as CFU/ml.

[6] = tested on: S. aureus 502a, E. coli ML35, and C. albicans 16820; assay: Cell-suspension microbicidal assay, statements across the test organisms (lowest MMC, overall ranges); type: cell-based
Summary of the method: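 Log-phase organisms (2×10^6 CFU/ml) were exposed for 2 h at 37° C. to peptide (0.062–8.0 μg/ml final) in 10 mM PIPES/5 mM glucose, pH 7.4, then serially diluted in broth and grown 24–48 h. MMC was defined as ≥99.9% killing (no pellet at 1:10^3). SI was calculated as concentration giving 3% hemolysis in PBS divided by lowest MMC.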

CC(C)C[C@@H]1NC(=O)[C@@H]2CSSC[C@H](NC(=O)[C@H](CCCNC(=N)N)NC(=O)[C@@H]3CSSC[C@H](NC1=O)C(=O)N[C@@H](CCCNC(=N)N)C(=O)N[C@@H](CCCNC(=N)N)C(=O)NCC(=O)N[C@@H](C(C)C)C(=O)N3)C(=O)N[C@@H](CC(C)C)C(=O)N[C@H]1CSSC[C@H](NC(=O)[C@H](C(C)C)NC(=O)CNC(=O)[C@H](CCCNC(=N)N)NC(=O)[C@H](CCCNC(=N)N)NC1=O)C(=O)N[C@@H](CCCNC(=N)N)C(=O)N2 [RTD-3] (cyclo(CLCRRGVCRCLCRRGVCR); disulfide 1-10, 3-8, 12-17)
fold less active than RTD-1 and RTD-2 against E. coli (E. coli ML35 [1]): 2- to 3 fold
MMC, C. albicans (C. albicans 16820): 1.0 µg/mL
MMC, S. aureus (S. aureus 502a): 1.0 µg/mL
MMC, E. coli (E. coli ML35 [2]): 2.0 µg/mL
reduction of ONPG hydrolysis by purified β-galactosidase [3]: 50%
ONPG hydrolysis (E. coli ML35 [4]): 9.2 (A405/sec) · 10^−5
amount of peptide required to achieve the microbicidal effect of RTD-1 and 2 (E. coli ML35 [5]; killing of E. coli, 2 h): approximately twice as much of the peptide was required
activity against E. coli compared with RTD-1 and -2 (E. coli ML35 [5]; longer incubation times (4 or 6 h)): nearly equivalent
MMC, range over the test organisms ([6]; S. aureus, E. coli and C. albicans, 10 mM PIPES, 5 mM glucose, pH 7.4): 1 to 2 µg/mL
M ([6]; peptide concentration that kill 99.9% of either S. aureus, E. coli, or C. albicans, lowest MMC value): 1 µg/mL
